± gives the expanded uncertainty stated by the source.
Conditions: 293.15 K; 101.33 kPa; Liquid; Vibrating tube method

| mass density | Compound |
| --- | --- |
| 1360 ± 20 kg/m3 | Cc1n(CCO)cc[n+]1C.F[B-](F)(F)F [1-(2-hydroxyethyl)-2,3-dimethylimidazolium tetrafluoroborate] |
| 1330 ± 20 kg/m3 | C[n+]1ccn(CCO)c1.F[B-](F)(F)F [1-(2-hydroxyethyl)-3-methylimidazolium tetrafluoroborate] |

— the NIST ThermoML archive (doi:10.1021/je050455+)
